Reference: ChEMBL document CHEMBL3044779, “The action of herbicides on fatty acid biosynthesis and elongation in barley and cucumber” (Pest Manag Sci, 2010)
Active and inactive are the calls of the source. The calls are words filed in the database; no cut-off is given here.

Assays:
Hordeum vulgare [1] = assay: Inhibition of fatty acid synthesis in Hordeum vulgare (barley) using [14C]acetate assessed as reduction in [14C]-labeled 24C fatty acid level at 7 uM after 3 hr by liquid scintillation counting; format: functional, organism-based
Cucumis sativus [2] = assay: Inhibition of fatty acid synthesis in […] using [14C]acetate assessed as reduction in [14C]-labeled 22C fatty acid level at 7 uM after 3 hr by liquid scintillation counting; format: functional, organism-based
Hordeum vulgare [3] = assay: Inhibition of fatty acid synthesis in Hordeum vulgare (barley) using [14C]acetate assessed as reduction in [14C]-labeled 22C fatty acid level at 7 uM after 3 hr by liquid scintillation counting; format: functional, organism-based
Cucumis sativus [4] = assay: Inhibition of fatty acid synthesis in Cucumis sativus (cucumber) using [14C]acetate assessed as reduction in [14C]-labeled 20C fatty acid level at 7 uM after 3 hr by liquid scintillation counting relative to control; format: functional, organism-based
Hordeum vulgare [5] = assay: Inhibition of fatty acid synthesis in Hordeum vulgare (barley) using [14C]acetate assessed as [14C]-labeled 20C fatty acid level at 7 uM after 3 hr by liquid scintillation counting (reference value: 2.1 +/- 0.4%); format: functional; design: scale not given: the % may be the effect or the level left
Cucumis sativus [6] = assay: Inhibition of fatty acid synthesis in Cucumis sativus (cucumber) using [14C]acetate assessed as [14C]-labeled 18C fatty acid level at 7 uM after 3 hr by liquid scintillation counting (reference value: 33.5 +/- 1.5%); format: functional; design: scale not given: the % may be the effect or the level left
Hordeum vulgare [7] = assay: Inhibition of fatty acid synthesis in Hordeum vulgare (barley) using [14C]acetate assessed as [14C]-labeled 18C fatty acid level at 7 uM after 3 hr by liquid scintillation counting (reference value: 57 +/- 0.9%); format: functional; design: scale not given: the % may be the effect or the level left
Cucumis sativus [8] = assay: Inhibition of fatty acid synthesis in Cucumis sativus (cucumber) using [14C]acetate assessed as [14C]-labeled 16C fatty acid level at 7 uM after 3 hr by liquid scintillation counting (reference value: 27.6 +/- 5.1%); format: functional; design: scale not given: the % may be the effect or the level left
Hordeum vulgare [9] = assay: Inhibition of fatty acid synthesis in Hordeum vulgare (barley) using [14C]acetate assessed as [14C]-labeled 16C fatty acid level at 7 uM after 3 hr by liquid scintillation counting (reference value: 30.6 +/- 0.2%); format: functional; design: scale not given: the % may be the effect or the level left
Cucumis sativus [10] = assay: (§1) Inhibition of fatty acid synthesis in Cucumis sativus (cucumber) assessed as inhibition of [14C]acetate incoporation in total fatty acids at 7 uM measured as total disintegration per g of fresh weight after 3 hr by liquid scintillation counting (reference value: 4.4 +/- 1 dpm x 10^6 g'1 fresh wt); format: functional
Hordeum vulgare [11] = assay: Inhibition of fatty acid synthesis in Hordeum vulgare (barley) assessed as inhibition of [14C]acetate incoporation in total fatty acids at 7 uM measured as total disintegration per g of fresh weight after 3 hr by liquid scintillation counting (reference value: 5.8 +/- 1.6 dpm x 10^6 g'1 fresh wt); format: functional
Hordeum vulgare [12] = assay: Inhibition of fatty acid synthesis in Hordeum vulgare (barley) assessed as inhibition of [14C]malonate incoporation in total fatty acids at 70 uM measured as total disintegration per g of fresh weight after 3 hr by liquid scintillation counting (reference value: 5.2 +/- 0.9 dpm x 10^6 g'1 fresh wt); format: functional
Hordeum vulgare [13] = assay: Inhibition of fatty acid synthesis in Hordeum vulgare (barley) using [14C]malonate assessed as [14C]-labeled 18C fatty acid level at 70 uM after 3 hr by liquid scintillation counting (reference value: 14.4 +/- 6.3%); format: functional; design: scale not given: the % may be the effect or the level left
Cucumis sativus [14] = assay: Inhibition of fatty acid synthesis in Cucumis sativus (cucumber) using [14C]malonate assessed as [14C]-labeled 16C fatty acid level at 70 uM after 3 hr by liquid scintillation counting (reference value: 5.1 +/- 0.9%); format: functional; design: scale not given: the % may be the effect or the level left
Hordeum vulgare [15] = assay: Inhibition of fatty acid synthesis in Hordeum vulgare (barley) using [14C]malonate assessed as [14C]-labeled 16C fatty acid level at 70 uM after 3 hr by liquid scintillation counting (reference value: 3.3 +/- 0.9%); format: functional; design: scale not given: the % may be the effect or the level left
Hordeum vulgare [16] = assay: Inhibition of fatty acid synthesis in Hordeum vulgare (barley) using [14C]malonate assessed as reduction in [14C]-labeled 26C fatty acid level at 70 uM after 3 hr by liquid scintillation counting relative to control; format: functional, organism-based
Cucumis sativus [17] = assay: Inhibition of fatty acid synthesis in Cucumis sativus (cucumber) using [14C]malonate assessed as reduction in [14C]-labeled 24C fatty acid level at 70 uM after 3 hr by liquid scintillation counting relative to control; format: functional, organism-based
Hordeum vulgare [18] = assay: Inhibition of fatty acid synthesis in Hordeum vulgare (barley) using [14C]malonate assessed as reduction in [14C]-labeled 24C fatty acid level at 70 uM after 3 hr by liquid scintillation counting relative to control; format: functional, organism-based
Cucumis sativus [19] = assay: Inhibition of fatty acid synthesis in Cucumis sativus (cucumber) using [14C]malonate assessed as reduction in [14C]-labeled 22C fatty acid level at 70 uM after 3 hr by liquid scintillation counting relative to control; format: functional, organism-based
Hordeum vulgare [20] = assay: Inhibition of fatty acid synthesis in Hordeum vulgare (barley) using [14C]malonate assessed as [14C]-labeled 22C fatty acid level at 70 uM after 3 hr by liquid scintillation counting (reference value: 34.7 +/- 2.4%); format: functional; design: scale not given: the % may be the effect or the level left
Cucumis sativus [21] = assay: Inhibition of fatty acid synthesis in Cucumis sativus (cucumber) using [14C]malonate assessed as [14C]-labeled 20C fatty acid level at 70 uM after 3 hr by liquid scintillation counting (reference value: 11.7 +/- 2%); format: functional; design: scale not given: the % may be the effect or the level left
Hordeum vulgare [22] = assay: Inhibition of fatty acid synthesis in Hordeum vulgare (barley) using [14C]malonate assessed as reduction in [14C]-labeled 20C fatty acid level at 70 uM after 3 hr by liquid scintillation counting relative to control; format: functional, organism-based
Cucumis sativus [23] = assay: Inhibition of fatty acid synthesis in Cucumis sativus (cucumber) using [14C]malonate assessed as [14C]-labeled 18C fatty acid level at 70 uM after 3 hr by liquid scintillation counting (reference value: 14.3 +/- 2%); format: functional; design: scale not given: the % may be the effect or the level left
Cucumis sativus [24] = assay: as §1, with “of [14C]malonate” for “of [14C]acetate”, “at 70” for “at 7”, “value: 16.3” for “value: 4.4”, “+/- 1.1” for “+/- 1”; format: functional

Structure (SMILES): CCN(CC)C(=O)n1cnc(S(=O)(=O)c2c(C)cc(C)cc2C)n1 [CAFENSTROLE]
- inhibition (Hordeum vulgare [1]): Active
- inhibition (Cucumis sativus [2]): Active
- inhibition (Hordeum vulgare [3]): Active
- inhibition (Cucumis sativus [4]): Active
- Activity (Hordeum vulgare [5]): 2.2%
- Activity (Cucumis sativus [6]): 39.6%
- Activity (Hordeum vulgare [7]): 66.1%
- Activity (Cucumis sativus [8]): 60.4%
- Activity (Hordeum vulgare [9]): 32.4%
- Activity (Cucumis sativus [10]): 2.5 ×10⁶ dpm
- Activity (Hordeum vulgare [11]): 5.1 ×10⁶ dpm
- Activity (Hordeum vulgare [12]): 2.7 ×10⁶ dpm
- Activity (Hordeum vulgare [13]): 65.4%
- Activity (Cucumis sativus [14]): 20.4%
- Activity (Hordeum vulgare [15]): 10%
- inhibition (Hordeum vulgare [16]): Active
- inhibition (Cucumis sativus [17]): Active
- inhibition (Hordeum vulgare [18]): Active
- inhibition (Cucumis sativus [19]): Active
- Activity (Hordeum vulgare [20]): 14.7%
- Activity (Cucumis sativus [21]): 8.4%
- inhibition (Hordeum vulgare [22]): Active
- Activity (Cucumis sativus [23]): 71.3%
- Activity (Cucumis sativus [24]): 9.4 ×10⁶ dpm
